Laboratory results as given in PubChem BioAssay (NCI).
Where “and” joins values, the source holds several entries; their conditions need not be identical. Equal values may be shown once.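 Protocol summary: plate cells (96-well), add compound at 5 concentrations, incubate 48 h, interpolate endpoints linearly. Abbreviation: GI50, concentration required for 50% inhibition of growth. TGI is the concentration that stops growth completely.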 Where a SMILES comes first, the peptide text is derived from it. The star is where a group is joined. Palmitoyl = CCCCCCCCCCCCCCCC(=O)*

Assays:
Assay in all cases: growth of human tumour cells (NCI), 48 h
OVCAR-4 ovarian = system: OVCAR-4 ovarian
SK-MEL-2 melanoma = system: SK-MEL-2 melanoma
OVCAR-3 ovarian = system: OVCAR-3 ovarian
SF-539 CNS = system: SF-539 CNS
HOP-92 NSCLC = system: HOP-92 NSCLC
HCC-2998 colon = system: HCC-2998 colon
PC-3 prostate = system: PC-3 prostate
MDA-MB-231 breast = system: MDA-MB-231 breast
M14 melanoma = system: M14 melanoma
NCI/ADR-RES ovarian = system: NCI/ADR-RES ovarian

| Structure (SMILES) | TGI (OVCAR-4 ovarian) | TGI (SK-MEL-2 melanoma) | TGI (OVCAR-3 ovarian) | TGI (SF-539 CNS) | TGI (HOP-92 NSCLC) | TGI (HCC-2998 colon) | TGI (PC-3 prostate) [µM] | TGI (MDA-MB-231 breast) [µM] | TGI (M14 melanoma) [µM] | TGI (NCI/ADR-RES ovarian) | GI50 (OVCAR-4 ovarian) | GI50 (SK-MEL-2 melanoma) | GI50 (OVCAR-3 ovarian) | GI50 (SF-539 CNS) | GI50 (HOP-92 NSCLC) | GI50 (HCC-2998 colon) | GI50 (NCI/ADR-RES ovarian) | GI50 (MDA-MB-231 breast) [µM] | GI50 (M14 melanoma) [µM] |
| --- | --- | --- | --- | --- | --- | --- | --- | --- | --- | --- | --- | --- | --- | --- | --- | --- | --- | --- | --- |
| COc1cc2c(c(OC)c1OC)-c1ccc(SC)c(=O)cc1[C@@H](NC(=O)c1ccc(C#N)cc1)CC2 | > 100 µM | 6.58 µM | < 0.0108 µM | < 0.01 µM | 10.6 µM | < 0.01 µM |  |  |  |  |  |  |  |  |  |  |  |  |  |
| CN1C(=O)[C@@]2(C=CC3(CC2)OCCO3)c2ccccc21 | > 50 µM | > 50 µM | > 50 µM |  | > 50 µM | > 50 µM | > 50 | > 50 | > 50 | > 50 µM |  |  |  |  |  |  |  |  |  |
| COc1cc2cc3c4c(cc(OC)c(OC)c4c2cc1OC)CCN3C(=O)OCCBr |  | > 100 µM | > 100 µM | > 100 µM | > 100 µM | > 100 µM |  |  |  |  |  |  |  |  |  |  |  |  |  |
| CSc1s[s+]c(SC)c1-c1ccccc1 | 17.9 µM |  | 37.6 µM | 32.4 µM | 33.6 µM | 21.5 µM | 54.1 | 31.2 | 30.8 | 42.1 µM |  |  |  |  |  |  |  |  |  |
| CC(=O)OCC1OC(n2c3c(c(-c4ccco4)c(C#N)c2=S)CCCC3)C(OC(C)=O)C(OC(C)=O)C1OC(C)=O (stereo unspecified) | > 31.6 µM | > 31.6 µM | > 31.6 µM | > 31.6 µM | 19.3 µM |  |  | > 31.6 | > 100 | > 31.6 µM |  |  |  |  |  |  |  |  |  |
| COC1(OC)N=C(N)C2(C#N)/C(=N/N(C)C)CC(C)C12C#N (stereo unspecified) |  | > 100 µM |  | > 100 µM | > 100 µM | > 100 µM | > 100 | > 100 | > 100 | > 100 µM |  |  |  |  |  |  |  |  |  |
| C=C1C(=O)O[C@H]2C(=O)[C@H](C)CCC[C@@](C)(O)/C=C\C[C@@]3(C)O[C@@H]3C[C@@H]12 |  | 41.5 µM | 24.3 µM | 36.9 µM | 23.8 µM |  | 38.6 | 43.6 | 24 | > 100 µM |  |  |  |  |  |  |  |  |  |
| CC(=O)Nc1ncc2c(n1)-c1ccccc1OC2 | > 100 µM | > 100 µM | > 100 µM | > 100 µM | > 100 µM |  | > 100 | > 100 | > 100 | > 100 µM |  |  |  |  |  |  |  |  |  |
| O=C(O)c1ccccc1-c1ccccc1C(=O)c1ccccc1 | > 100 µM | > 100 µM | > 100 µM | > 100 µM | > 100 µM |  | > 100 | > 100 | > 100 | > 100 µM |  |  |  |  |  |  |  |  |  |
| C=CC1(CCC(Br)C(C)(C)Cl)CO1 (stereo unspecified) |  | > 10 µM | > 10 µM | > 10 µM | > 10 µM | > 10 µM | > 10 | > 10 | > 10 | > 10 µM |  |  |  |  |  |  |  |  |  |
| COC(=O)C(Cc1ccccc1)NC(=O)CCCNC(=O)OCc1ccccc1 (stereo unspecified) | > 100 µM |  | > 100 µM |  | > 100 µM | > 100 µM | > 100 | > 100 | 32.5 | > 100 µM |  |  |  |  |  |  |  |  |  |
| Fc1nc(F)nc(-c2c3ccccc3c3n2CCS3)n1 | > 100 µM | > 100 µM | > 100 µM | > 100 µM | > 100 µM | > 100 µM |  |  | > 100 |  |  |  |  |  |  |  |  |  |  |
| Cc1cnc2[nH]c(-c3ccccc3)cc(=O)c2c1 | > 100 µM | > 35.7 µM |  | 0.0671 µM | > 42.2 µM | 1.96 µM | > 57.3 | > 100 | > 18 | 0.0447 µM |  |  |  |  |  |  |  |  |  |
| CCCCCCCC(CC(=O)O)OC(=O)CC(CCCCCCC)OC1OC(C)C(O)C(O)C1OC1OC(C)C(O)C(O)C1O (stereo unspecified) |  | > 100 µM | > 100 µM | > 100 µM | > 100 µM | > 100 µM | > 100 | > 100 | > 100 | > 100 µM |  |  |  |  |  |  |  |  |  |
| CC(=O)c1c(O)c(C)c(O)c2c1OC1=CC(=O)C(C(C)=O)C(=O)C12C (stereo unspecified) | 61.3 µM and 35.1 µM | 14.5 µM and 50.6 µM | 3.72 µM and 15.5 µM | 18.4 µM and 23.5 µM | 9.69 µM and 57.1 µM | 17.1 µM and 22.8 µM |  |  |  | 13.5 µM and 55.7 µM | 5.28 µM and 9.79 µM | 4.42 µM and 25.4 µM | 1.05 µM and 5.74 µM | 5.09 µM and 16.3 µM | 5.38 µM and 18.7 µM | 6.08 µM and 13.7 µM | 4.05 µM and 16.7 µM |  |  |
| Cc1ccc(S(=O)(=O)NC(=O)NS(=O)(=O)O)cc1 | > 100 µM | > 100 µM |  | > 100 µM | > 100 µM |  | > 100 | > 100 | > 100 | > 100 µM |  |  |  |  |  |  |  |  |  |
| CCCCCCCCCCCCCCCC(=O)NC(CCCCN)C(=O)NCC(=O)NC(Cc1ccccc1)C(=O)N1CCCC1C(=O)NC(CO)C(=O)NC(Cc1ccc(O)cc1)C(=O)NC(CCCCN)C(=O)NC(CC(C)C)C(=O)NC(CCCN=C(N)N)C(=O)N1CCCC1C(=O)NCC(N)=O (stereo unspecified) (Palmitoyl-KGFPSYKLRPG-NH2; configuration not given here) | 78.7 µM | > 100 µM | 76.5 µM | 48.1 µM | 45.4 µM | 35.2 µM |  | 33.2 | 37.9 | 42.9 µM | 30.5 µM | 43.5 µM | 28.6 µM | 21.1 µM | 19.3 µM | 17.1 µM | 20.7 µM | 17.3 | 18.4 |
| O=C(CCN1CCCCC1CO)Nc1ccc2c(c1)C(=O)c1ccc(NC(=O)CCN3CCCCC3CO)cc1C2=O (stereo unspecified) | 27.1 µM | 18.8 µM |  | 16.1 µM | 37.2 µM | 20.8 µM |  |  | 22.4 |  |  |  |  |  |  |  |  |  |  |
| c1csc(-c2ccc(-c3ccc(-c4cccs4)s3)s2)c1 | > 100 µM | > 100 µM | > 100 µM | > 100 µM |  | > 100 µM | > 100 | > 100 | > 100 | > 100 µM |  |  |  |  |  |  |  |  |  |
| O=C(O)CCCc1nc2c(n1-c1ccccc1)C(=O)c1ccccc1C2=O | 76.2 µM | > 100 µM | 82.7 µM | > 100 µM | > 100 µM | > 100 µM |  | > 100 | > 100 | > 100 µM |  |  |  |  |  |  |  |  |  |
| COC(=O)CNC(=O)/C=C/[C@H](O[Si](C)(C)C(C)(C)C)[C@H](/C=C/C(=O)NCC(=O)OC)O[Si](C)(C)C(C)(C)C | > 25 µM | > 25 µM | > 25 µM | > 25 µM | > 25 µM | > 25 µM | > 25 | > 25 |  | > 25 µM |  |  |  |  |  |  |  |  |  |
